Article PMC2394487, “Improved radiotracing of oxytocin receptor-expressing tumours using the new [^111In]-DOTA-Lys^8-deamino-vasotocin analogue” (British Journal of Cancer, 2003)
“Also recorded” adds a separate entry of the source. Positions of bridges follow the written chain, without caps; N, C: chain ends. Non-standard residues stand in square brackets, D forms with d. Residues, ends and D or L forms follow the SMILES beside them. *: point of attachment. DOTA = O=C(O)CN1CCN(CC(=O)O)CCN(CC(=O)*)CCN(CC(=O)O)CC1; Mpa = O=C(O)CCS

Legend:
human OTR = biological target: T1, human OTR (Homo sapiens, UniProt P30559); assay: Heterologous competition binding, [3H]-OT displacement, membranes of transfected COS7 cells
T1 construct: expressed in transfected cells; host or cells: COS7 (monkey kidney), transient electroporation
T1 sequence (P30559 1-389): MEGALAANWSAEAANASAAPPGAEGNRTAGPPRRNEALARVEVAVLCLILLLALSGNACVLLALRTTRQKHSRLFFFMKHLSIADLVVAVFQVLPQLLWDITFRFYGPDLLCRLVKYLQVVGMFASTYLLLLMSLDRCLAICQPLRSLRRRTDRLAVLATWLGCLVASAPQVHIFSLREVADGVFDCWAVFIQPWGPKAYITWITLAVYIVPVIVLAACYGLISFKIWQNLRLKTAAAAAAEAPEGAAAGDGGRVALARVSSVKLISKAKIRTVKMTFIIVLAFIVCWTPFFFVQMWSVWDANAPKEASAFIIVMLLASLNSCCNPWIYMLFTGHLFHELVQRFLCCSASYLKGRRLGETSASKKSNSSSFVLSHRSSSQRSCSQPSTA
Description: (§1) To determine the LVT, dLVT and DOTA-dLVT affinity constants in comparison with OT, heterologous competition experiments were performed on membranes prepared from monkey kidney COS7 cells transiently transfected by means of electroporation with human OTR, V1a, V2 and V1b cDNAs as previously described ([Chini et al, 1995a]). Briefly, the transfected cells were homogenised with a Dounce glass apparatus, washed twice, and resuspended in binding buffer (50 mM Tris HCl, 5 mM MgCl, pH 7.4). Between 5 and 10 μg of membrane proteins were incubated with a fixed concentration of [^3H]OT (1–2 nM) for 30 min at 30°C in the presence of increasing concentrations of unlabelled peptides. Nonspecific binding was determined in the presence of 1 μM OT. Bound and free radioactivity were separated by filtration over Whatman GF/C filters presoaked in 10 mg ml^−1 BSA. The binding isotherms were analysed using GraphPad Prism.
LVT, dLVT and DOTA-dLVT affinities for the human OTR were determined by means of heterologous competition experiments on membranes prepared from transiently transfected COS7 cells using [^3H]-OT as radioligand.
Figure 3 Binding of LVT-derived peptides to human OT/AVP receptor subtypes. (A) Comparison of OT and DOTA-dLVT affinity for the human OTR. […] [^3H]-OT was used at a concentration of 1–2 nM, and nonspecific binding was determined in the presence of […] OT. Data are expressed as the percentage of bound [^3H]-OT in the absence of cold competitor. […] The affinity of [^111In]-DOTA-dLVT for the human OTR was measured by incubating increasing amounts of labelled peptide to membrane preparations of COS7 cells transiently transfected with the wild-type OTR. […] The membrane preparations of OTR-expressing cells were incubated in the presence of a constant amount of ^3[H]OT (1–2 nM), and nonspecific binding was determined in the presence of 100 μM OT. The membrane preparations of cells expressing V1a, V1b and V2 receptors were incubated in the presence of a constant amount of ^3[H]AVP (2–4 nM), and nonspecific binding was determined in the presence of 100 μM AVP. […]

human V1a receptor = biological target: T2, human V1a receptor (Homo sapiens, UniProt P37288); assay: Competition binding, [3H]-AVP displacement, membranes of transfected COS7 cells
T2 construct: expressed in transfected cells; host or cells: COS7 (monkey kidney), transient electroporation
Description: as §1
(§2) Figure 3 Binding of LVT-derived peptides to human OT/AVP receptor subtypes. (A) Comparison of OT and DOTA-dLVT affinity for the human OTR. Competition experiments were performed using membrane preparations of COS7 cells transiently transfected with the wild-type OTR. [^3H]-OT was used at a concentration of 1–2 nM, and nonspecific binding was determined in the presence of […] OT. Data are expressed as the percentage of bound [^3H]-OT in the absence of cold competitor. The curves are representative of three independent assays performed in triplicate. (B) [^111In]-DOTA-dLVT saturation binding assay. The affinity of [^111In]-DOTA-dLVT for the human OTR was measured by incubating increasing amounts of labelled peptide to membrane preparations of COS7 cells transiently transfected with the wild-type OTR. The curve is representative of two independent assays performed in triplicate. (C) Receptor selectivity profile of DOTA-dLVT. Competition experiments were performed using membrane preparations of COS7 cells transiently transfected with the wild-type human OTR, and V1a, V1b and V2 receptors. The membrane preparations of OTR-expressing cells were incubated in the presence of a constant amount of ^3[H]OT (1–2 nM), and nonspecific binding was determined in the presence of 100 μM OT. The membrane preparations of cells expressing V1a, V1b and V2 receptors were incubated in the presence of a constant amount of ^3[H]AVP (2–4 nM), and nonspecific binding was determined in the presence of 100 μM AVP. The data are expressed as percentages of bound [^3H]-ligand in the absence of cold competitor. Each curve is the mean of triplicate determinations of a single representative experiment.

human V1b receptor = biological target: T3, human V1b receptor (Homo sapiens, UniProt P47901); assay: as above
T3 construct: expressed in transfected cells; host or cells: COS7 (monkey kidney), transient electroporation
T3 sequence (P47901 1-424): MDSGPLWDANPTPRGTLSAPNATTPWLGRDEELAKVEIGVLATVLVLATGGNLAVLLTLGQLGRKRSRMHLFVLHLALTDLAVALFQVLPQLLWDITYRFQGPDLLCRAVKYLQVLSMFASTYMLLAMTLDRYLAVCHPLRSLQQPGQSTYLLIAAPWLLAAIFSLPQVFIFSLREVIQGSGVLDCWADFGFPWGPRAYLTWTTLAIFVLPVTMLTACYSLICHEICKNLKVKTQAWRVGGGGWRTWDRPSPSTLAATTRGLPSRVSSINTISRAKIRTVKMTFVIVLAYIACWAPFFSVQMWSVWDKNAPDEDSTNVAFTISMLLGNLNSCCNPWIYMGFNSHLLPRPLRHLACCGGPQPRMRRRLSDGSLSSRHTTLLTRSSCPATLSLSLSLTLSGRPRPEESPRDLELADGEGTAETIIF
Description: as §1, §2

human V2 receptor = biological target: T4, human V2 receptor (Homo sapiens, UniProt P30518); assay: as above
T4 construct: expressed in transfected cells; host or cells: COS7 (monkey kidney), transient electroporation
Description: as §1, §2

human OTR fused to EGFP = biological target: T5, human OTR fused to EGFP (Homo sapiens, UniProt P30559); assay: Peptide-induced receptor internalisation, confocal microscopy, HEK293 cells; type: cell-based; conditions: peptide 10^−6 M; for receptor internalisation (result in words): up to 60 min
T5 construct: expressed in transfected cells; host or cells: HEK293, stably transfected
T5 sequence (P30559 1-389): T1 sequence (P30559 1-389)
Description: HEK293 cells stably transfected with the human OTR fused to EGFP were grown in six-well dishes, washed twice in serum-free medium, and left to equilibrate for 30 min at 37°C. Peptides were then added at a final concentration of 10^−6 M. At fixed time intervals (5, 15, 30 and 60 min), the cells were washed twice with 10 mM sodium phosphate buffer, pH 7.4, containing 150 mM NaCl (LS buffer), fixed for 20 min at room temperature with 4% (w v^−1) paraformaldehyde, and mounted on glass slides with 90% (v v^−1) glycerol in PBS. The slides were observed under an MRC1024 BioRad confocal microscope.
To assess whether LVT, dLVT and DOTA-dLVT behave like OT to induce receptor internalisation, we applied them to HEK293 cells stably expressing a human OTR C-terminally tagged with the green fluorescent protein EGFP ([Guzzi et al, 2002]; [Rimoldi et al, 2003]).
Figure 4 Laser-scanning confocal microscopy analysis of peptide-induced receptor internalisation. Receptor internalisation was investigated in HEK293 cells stably transfected with the human OTR bearing the EGFP fused at its C-terminus. The cells were grown on coverslips and incubated in serum-free medium for 30 min (Bas), after which the peptides were added at a final concentration of 10^−6 M and the coverslips were fixed at 1, 5, 15, 30 and 60 min.

[1] = test system: OTR-positive cells (MCF7, TS/A, MOG-U-V-W); assay: Displacement of [111In]-DOTA-dLVT binding from intact tumour cells by cold peptides; type: cell-based; conditions: 5 min preincubation with 100 μM and 1 mM nonradioactive peptide
Description: Binding specificity was determined by evaluating radioactive displacement. Briefly, the cell suspension was incubated for 5 min in the presence of LVT, dLVT or OT 100 μM and 1 mM, or in the presence of unrelated peptides (somatostatin 100 nM and 1 μM, and hexarelin 1 μM) followed by 20 min of incubation with 1 μM [^111In]-DOTA-dLVT. The cells were then centrifuged and washed twice as described above. The activity of the two different agonists and the unrelated peptides in competing with the radioligand was evaluated by measuring cell-bound radioactivity. All of the experiments were performed in triplicate. The statistical analysis was carried out using ANOVA, with a significance cutoff point of 0.05.

[2] = displacement of [3H]-AVP, mean±s.e. of three experiments

T2 sequence (P37288 whole entry): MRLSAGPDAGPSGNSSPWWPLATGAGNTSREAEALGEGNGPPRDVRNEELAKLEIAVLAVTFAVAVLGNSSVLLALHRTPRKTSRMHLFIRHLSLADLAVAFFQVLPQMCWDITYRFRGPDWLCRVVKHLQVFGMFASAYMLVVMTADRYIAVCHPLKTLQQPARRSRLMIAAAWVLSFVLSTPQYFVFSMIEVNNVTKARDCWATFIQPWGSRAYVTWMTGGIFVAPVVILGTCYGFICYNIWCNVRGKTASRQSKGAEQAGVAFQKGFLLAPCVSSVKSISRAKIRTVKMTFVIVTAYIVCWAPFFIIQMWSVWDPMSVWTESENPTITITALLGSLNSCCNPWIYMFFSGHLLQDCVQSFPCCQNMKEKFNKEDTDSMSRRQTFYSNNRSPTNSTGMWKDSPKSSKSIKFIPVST
T4 sequence (P30518 whole entry): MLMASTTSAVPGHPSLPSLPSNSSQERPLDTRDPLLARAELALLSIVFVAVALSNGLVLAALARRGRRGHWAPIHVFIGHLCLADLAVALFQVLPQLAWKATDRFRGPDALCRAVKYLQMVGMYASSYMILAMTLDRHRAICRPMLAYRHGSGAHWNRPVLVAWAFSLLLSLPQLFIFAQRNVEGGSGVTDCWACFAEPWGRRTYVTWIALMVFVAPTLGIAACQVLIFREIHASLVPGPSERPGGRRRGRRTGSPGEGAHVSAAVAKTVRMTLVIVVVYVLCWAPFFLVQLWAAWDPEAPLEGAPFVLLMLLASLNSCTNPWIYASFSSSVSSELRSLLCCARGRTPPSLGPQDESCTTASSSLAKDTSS

Row | enhancement of affinity for the hOTR by addition of DOTA group at position 8 of dLVT (human OTR; compared to dLVT (to both OT and dLVT)) | Ki (human OTR; displacement of [3H]-OT, mean±s.e. of three experiments) | lower affinity at V1a receptor relative to human OTR (human V1a receptor) | Ki (human V1a receptor; [2]) | lower affinity at V1b receptor relative to human OTR (human V1b receptor) | Ki (human V1b receptor; [2]) | decrease in binding affinity at V2 receptor relative to human OTR (human V2 receptor) | Ki (human V2 receptor; [2]) | time after application at which punctate fluorescence (endocytotic vesicles) is seen (human OTR fused to EGFP) | concentrations at which V2 receptor binds the peptide (human V2 receptor; in words) | SMILES | receptor internalisation (result in words) (human OTR fused to EGFP) | specific [111In]-DOTA-dLVT binding displaced [1]
1 | 2–3 fold | 1.21 ± 0.199 nM | ≥ 300 fold | 370 ± 58 nM | ≥ 300 fold | 640 ± 177 nM | ≥ 300 fold | 3560 ± 280 nM | 5 min | – | CC[C@H](C)[C@@H]1NC(=O)[C@H](Cc2ccc(O)cc2)NC(=O)CCSSC[C@@H](C(=O)N2CCC[C@H]2C(=O)N[C@@H](CCCCNC(=O)CN2CCN(CC(=O)O)CCN(CC(=O)O)CCN(CC(=O)O)CC2)C(=O)NCC(N)=O)NC(=O)[C@H](CC(N)=O)NC(=O)[C@H](CCC(N)=O)NC1=O [DOTA-dLVT] ([Mpa]YIQNCPK(DOTA)G-NH2; disulfide 1-6) | capable of inducing a persistent internalisation; also recorded: rapid and persistent receptor internalisation | –
2 | – | – | 10 fold | – | 10 fold | – | – | – | 5 min | only at micromolar concentrations | CC[C@H](C)[C@@H]1NC(=O)[C@H](Cc2ccc(O)cc2)NC(=O)[C@@H](N)CSSC[C@@H](C(=O)N2CCC[C@H]2C(=O)N[C@@H](CCCCN)C(=O)NCC(N)=O)NC(=O)[C@H](CC(N)=O)NC(=O)[C@H](CCC(N)=O)NC1=O [LVT, [Lys8]-vasotocin, reference compound] (HELM PEPTIDE1{C.Y.I.Q.N.C.P.K.G.[am]}$PEPTIDE1,PEPTIDE1,1:R3-6:R3$$$V2.0; C-terminus assumed; bridges inferred) | rapid and persistent receptor internalisation | more than 92%
